One experiment has as its target T1, KRAS G12D (Homo sapiens, UniProt P01116, G12D).
T1 construct: host or cells: AsPC-1 human pancreatic cancer cells
Put plainly: Evaluation of KRAS degradation activity on AsPC-1 by Cell ELISA (Test Example 1). The experiment is classed as cell-based. Conditions: degradation rate of KRAS G12D at 1 μM in AsPC-1 cells, cultured overnight, corrected with β-actin. The method, then: Test Example 1: Evaluation of KRAS Degradation Activity on Human G12D Mutant KRAS-Positive Pancreatic Cancer Line AsPC-1 (CRL-1682; ATCC)
The KRAS degradation activity of test compounds was evaluated by measuring the expression levels of KRAS G12D by Cell ELISA.
AsPC-1 cells were seeded at 20 μL per well on 384-well plates (from Greiner bio-one) to give 2.0×10^4 cells per well. As for the cell culture conditions, RPMI 1640 (from Sigma-Aldrich) medium containing 10% fetal bovine serum (from Cytiva) was used in the presence of 5% CO2 at 37° C.
The next day, the test compounds (10 points having final concentrations in the range of 10 μM to 0.3 nM) and DMSO (from FUJIFILM Wako Pure Chemical Corporation), which was the solvent for the test compounds, as a negative control were diluted 500-fold with a fresh medium and were added at 20 μL per well. The cells were cultured overnight.
The next day, the culture supernatant was removed, and 4% paraformaldehyde phosphate buffer (from FUJIFILM Wako Pure Chemical Corporation) was added at 20 μL per well. The plates were allowed to stand for 30 minutes at room temperature to thus immobilize the cells. Then, the supernatant was removed, and 0.1% Triton X-100 (from Amersham Biosciences)-containing Phosphate buffered saline (PBS; from FUJIFILM Wako Pure Chemical Corporation) was added at 20 μL per well. After allowing to stand for 10 minutes at room temperature, the supernatant was removed. PBS was added at 25 μL per well, and the supernatant was removed to thus wash each well. The washing was performed twice in total. Next, the supernatant was removed, and 0.5% sodium dodecyl sulfate (SDS; from Invitrogen)-containing PBS was added at 20 μL per well. After allowing to stand at room temperature for 10 minutes, the supernatant was removed by a centrifugal operation (using a centrifugal dehydrator machine, the supernatant was removed by the same method hereinafter). PBS was added at 25 μL per well, and the supernatant was removed to thus wash each well. The washing was performed twice in total. The supernatant was removed, and blocking solution (Intercept Blocking Buffer; from Li-COR Biosciences) was added at 20 μL per well. After allowing to stand for 30 minutes at room temperature, the supernatant was removed, and a solution obtained by diluting anti-β-actin antibody (Anti-beta Actin antibody [mAbcam 8226]-Loading Control; from abcam) 1,000-fold with blocking solution and a solution obtained by diluting anti-Ras (G12D Mutant Specific) antibody (Ras (G12D Mutant Specific) (D8H7) Rabbit mAb #14429; from Cell Signaling Technology) and anti-β-actin antibody (from abcam) 1,000-fold with blocking solution were respectively added to positive control wells and the other wells at 15 μL per well as a primary antibody. The plates were allowed to stand overnight at 4° C.
The next day, the supernatant was removed. PBS was added at 25 μL per well, and the supernatant was removed to thus wash each well. The washing was performed twice in total. The supernatant was removed, and a solution obtained by diluting Donkey anti-Mouse IgG H&L (IRDye 680RD) (from Li-COR Biosciences) and Goat anti-Rabbit IgG H&L (IRDye 800CW) (from Li-COR Biosciences) 1,000-fold with blocking solution was added at 15 μL per well as a secondary antibody. After allowing to stand for 1 hour at room temperature, the supernatant was removed. PBS was added at 25 μL per well, and the supernatant was removed to thus wash each well. The washing was performed twice in total. After removing the supernatant, the plates were dried with air at room temperature for 2 hours or more, and the 700 nm and 800 nm fluorescent signals were measured with Aerius (from Li-COR Biosciences). […]

In experiment [1] the test system is human G12D mutant KRAS-positive pancreatic cancer line AsPC-1. Nature of the experiment: Non-anchorage-dependent cell growth inhibitory effect, spheroid 3D cell culture (Test Example 2). Conditions: AsPC-1 spheroid 3D culture, 6 days, CellTiter Glo 2.0. Type of experiment: cell-based. As to the method: Test Example 2: Evaluation of Non-Anchorage-Dependent Cell Growth Inhibitory Effect on Human G12D Mutant KRAS-Positive Pancreatic Cancer Line AsPC-1
The non-anchorage-dependent cell growth inhibitory effect of test compounds was evaluated by spheroid 3D cell culture.
AsPC-1 cells were seeded on low-cell-adhesive round bottom 384-well plates (PrimeSurface: from Sumitomo Bakelite) at 36 μL/well to give 5×10^2 cells per well. As for the cell culture conditions, RPMI 1640 medium containing 10% fetal bovine serum was used in the presence of 5% CO2 at 37° C.
The next day, the test compounds (6 points having final concentrations in the range of 10 μM to 30 nM) and DMSO, which was the solvent for the test compounds, as a negative control were diluted 100-fold with a fresh medium and were added at 4 μL per well. After culturing in the presence of 5% CO2 at 37° C. for 6 days, CellTiter Glo 2.0 (from Promega) was added at 20 μL per well. After stirring with a plate mixer (from FINEPCR) at normal temperature for 1 hour, the luminescent signals were measured with ARVO X3 (from PerkinElmer).
With the signaling value in treatment with DMSO taken as 100% and with the signaling value in the medium alone without cells taken as 0%, the 50% inhibitory concentration values (IC50) were calculated by Sigmoid-Emax nonlinear regression analysis.

Turning to `Cc1c(F)cc2[nH]ncc2c1-c1c(C2CC2)cc2c(N3C[C@@H]4C[C@H]3CN4)nc(OC3CCOCC3)nc2c1OCc1ccc(C(=O)N2CCN(C(=O)c3ccc4c(c3)CN(C(=O)c3cc(C(C)C)c(O)cc3O)C4)C[C@@H]2C)cc1` (atropisomer, axis not shown) [Example 2], the “% degradation” value at KRAS G12D was determined as 44%. In experiment [1] (Homo sapiens, ASPC1, 144 h), this compound displayed an IC50 of 1.9 µM.

As to `Cc1c(F)cc2[nH]ncc2c1-c1c(C2CC2)cc2c(N3C[C@@H]4C[C@H]3CN4)nc(OC3CCOCC3)nc2c1OCc1ccc(C(=O)N2CCN(C(=O)c3ccc4c(c3)CN(C(=O)c3cc(C(C)C)c(O)cc3O)C4)C[C@H]2C)cc1` (atropisomer, axis not shown) [Example 3], the “% degradation” value on KRAS G12D was 46%. For the same compound, the half-maximal inhibitory concentration (IC50) in experiment [1] (Homo sapiens, ASPC1, 144 h) was determined as 2.8 µM.

`Cc1c(F)cc2[nH]ncc2c1-c1c(C2CC2)cc2c(N3C[C@@H]4C[C@H]3CN4)nc(OC3CCOCC3)nc2c1OCc1ccc(C(=O)N2C[C@H]3CN(Cc4ccc5c(c4)CN(C(=O)c4cc(C(C)C)c(O)cc4O)C5)C[C@H]3C2)cc1` (atropisomer, axis not shown) [Example 4]: on KRAS G12D, the “% degradation” value came out at 15%. This compound gave an IC50 in experiment [1] (Homo sapiens, ASPC1, 144 h) of 5.1 µM.

As to `Cc1c(F)cc2[nH]ncc2c1-c1c(C2CC2)cc2c(N3C[C@@H]4C[C@H]3CN4)nc(OC3CCOCC3)nc2c1OCc1ccc(C(=O)N2CCN(Cc3ccc4c(c3)CN(C(=O)c3cc(C(C)C)c(O)cc3O)C4)CC2)cc1` (atropisomer, axis not shown) [Example 6], the “% degradation” value at KRAS G12D was found to be 25%. Besides, the IC50 in experiment [1] (Homo sapiens, ASPC1, 144 h) amounted to 3.6 µM.

On to `Cc1c(F)cc2[nH]ncc2c1-c1c(C2CC2)cc2c(N3C[C@@H]4C[C@H]3CN4)nc(OC3CCOCC3)nc2c1OCc1ccc(C(=O)N2CCCN(Cc3ccc4c(c3)CN(C(=O)c3cc(C(C)C)c(O)cc3O)C4)CC2)cc1` (atropisomer, axis not shown) [Example 7], for which the “% degradation” value on KRAS G12D was 20%.

Consider `Cc1c(F)cc2[nH]ncc2c1-c1c(C2CC2)cc2c(N3C[C@@H]4C[C@H]3CN4)nc(OC3CCOCC3)nc2c1OCc1ccc(C(=O)N2CCC3(CC2)CN(Cc2ccc4c(c2)CN(C(=O)c2cc(C(C)C)c(O)cc2O)C4)C3)cc1` (atropisomer, axis not shown) [Example 10], for which the “% degradation” value at KRAS G12D is 37%. Half-maximal inhibition in experiment [1] (Homo sapiens, ASPC1, 144 h) (IC50) required 3.7 µM.

Consider `Cc1c(F)cc2[nH]ncc2c1-c1c(C2CC2)cc2c(N3C[C@@H]4C[C@H]3CN4)nc(OC3CCOCC3)nc2c1OCc1ccc(C(=O)N2CCN(C3CCN(Cc4ccc5c(c4)CN(C(=O)c4cc(C(C)C)c(O)cc4O)C5)CC3)CC2)cc1` (atropisomer, axis not shown) [Example 11], for which the “% degradation” value at KRAS G12D is listed as 51%. The compound also registered an IC50 in experiment [1] (Homo sapiens, ASPC1, 144 h) of 2.9 µM.

Regarding `Cc1c(F)cc2[nH]ncc2c1-c1c(C2CC2)cc2c(N3C[C@@H]4C[C@H]3CN4)nc(OC3CCOCC3)nc2c1OCc1ccc(C(=O)N2CCN(CC3CN(Cc4ccc5c(c4)CN(C(=O)c4cc(C(C)C)c(O)cc4O)C5)C3)CC2)cc1` (atropisomer, axis not shown) [Example 12], at KRAS G12D, the “% degradation” value is listed as 20%. In experiment [1] (Homo sapiens, ASPC1, 144 h), this compound registered a concentration for half-maximal inhibition (IC50) of 3.5 µM.

Regarding `CO[C@@H](O)COc1nc(N(C)[C@H]2CCNC2)c2cc(C3CC3)c(-c3c(C)c(F)cc4[nH]ncc34)c(OCc3ccc(C(=O)N4CCN(C(=O)c5ccc6c(c5)CN(C(=O)c5cc(C(C)C)c(O)cc5O)C6)C[C@@H]4C)cc3)c2n1` (atropisomer, axis not shown) [Example 13], the “% degradation” value on KRAS G12D was 57%. Also, the 50% inhibitory concentration (IC50) in experiment [1] (Homo sapiens, ASPC1, 144 h) was determined as 2 µM.

With `Cc1c(F)cc2[nH]ncc2c1-c1c(C2CC2)cc2c(N3C[C@@H]4C[C@H]3CN4)nc(OC3CCOCC3)nc2c1OCc1ccc(CN2CCN(C(=O)c3ccc4c(c3)CN(C(=O)c3cc(C(C)C)c(O)cc3O)C4)CC2)cc1` (atropisomer, axis not shown) [Example 15], the “% degradation” value on KRAS G12D was 17%. The compound further had an IC50 in experiment [1] (Homo sapiens, ASPC1, 144 h) of 3.9 µM.

For `Cc1c(F)cc2[nH]ncc2c1-c1c(C2CC2)cc2c(N3C[C@@H]4C[C@H]3CN4)nc(OC3CCOCC3)nc2c1OCc1ccc(C(=O)N2CCN(CCCOc3ncc4c(n3)CCN(C(=O)c3cc(C(C)C)c(O)cc3O)C4)CC2)cc1` (atropisomer, axis not shown) [Example 19], the IC50 in experiment [1] (Homo sapiens, ASPC1, 144 h) is 2.3 µM.

With `Cc1c(F)cc2[nH]ncc2c1-c1c(C2CC2)cc2c(N3C[C@@H]4C[C@H]3CN4)nc(OC3CCOCC3)nc2c1OCc1ccc(C(=O)N2CCN(C(=O)c3ccc4c(c3)CN(C(=O)c3cc(C(C)C)c(O)cc3O)C4)CC2)cc1` (atropisomer, axis not shown; (M)) [Example 1, [5-(4-{4-[({(7M)-6-cyclopropyl-4-[(1S,4S)-2,5-diazabicyclo[2.2.1]heptan-2-yl]-7-(6-fluoro-5-methyl-1H-indazol-4-yl)-2-[(oxan-4-yl)oxy]quinazolin-8-yl}oxy)methyl]benzoyl)piperazine-1-carbonyl)-1,3-dihydro-2H-isoindol-2-yl][2,4-dihydroxy-5-(propan-2-yl)phenyl]methanone], on KRAS G12D, the “% degradation” value was determined as 43%. In experiment [1] (Homo sapiens, ASPC1, 144 h), this compound came in with a 50% inhibitory concentration (IC50) of 3.3 µM.

`Cc1c(F)cc2[nH]ncc2c1-c1c(C2CC2)cc2c(N3C[C@@H]4C[C@H]3CN4)nc(OC3CCOCC3)nc2c1OCc1ccc(C(=O)N2C3CCC2CN(Cc2ccc4c(c2)CN(C(=O)c2cc(C(C)C)c(O)cc2O)C4)C3)cc1` [Example 9] had an IC50 in experiment [1] (Homo sapiens, ASPC1, 144 h) of 3.4 µM.

`CO[C@@H](C)COc1cc(O[C@H]2CCNC2)c2cc(C3CC3)c(-c3c(C)c(F)cc4[nH]ncc34)c(OCc3ccc(C(=O)N4CCN(C(=O)c5ccc6c(c5)CN(C(=O)c5cc(C(C)C)c(O)cc5O)C6)C[C@@H]4C)cc3)c2n1` [Example 16]: the “% degradation” value at KRAS G12D worked out at 30%.

As for `Cc1c(F)cc2[nH]ncc2c1-c1c(C2CC2)cc2c(N3C[C@@H]4C[C@H]3CN4)nc(OC3CCOCC3)nc2c1OCc1ccc(C(=O)N2CCN(C(C)C(=O)c3ccc4c(c3)CN(C(=O)c3cc(C(C)C)c(O)cc3O)C4)CC2)cc1` (stereo partly shown) [Example 18], on KRAS G12D, the “% degradation” value worked out at 20%. Further, in experiment [1] (Homo sapiens, ASPC1, 144 h), half-maximal inhibition (IC50) was put at 7.4 µM.

For the compound “{4-[({(7M)-6-cyclopropyl-4-[(1S,4S)-2,5-diazabicyclo[2.2.1]heptan-2-yl]-7-(6-fluoro-5-methyl-1H-indazol-4-yl)-2-[(oxan-4-yl)oxy]quinazolin-8-yl}oxy)methyl]phenyl) {4-[(4-{3-[2,4-dihydroxy-5-(propan-2-yl)phenyl]-5-hydroxy-4H-1,2,4-triazol-4-yl)phenyl)methyl]piperazin-1-yl}methanone [Example 5]”, on KRAS G12D, the “% degradation” value amounted to 46%. Further, in experiment [1], 2.2 µM corresponded to half-maximal inhibition (IC50).

Values taken from patent US20250388569A1, “HETEROCYCLIC COMPOUND FOR INHIBITING AND/OR INDUCING DEGRADATION OF KRAS PROTEIN” (ASTELLAS PHARMA INC., priority 2022, published 2025).
